Assay [1] has as its target Epidermal growth factor receptor (Homo sapiens, UniProt P00533). The assay is described as follows: Inhibition of EGFR phosphorylation at Y 1173 residues in human HeLa cells preincubated for 30 mins followed by EGF-stimulation and measured after 2 mins by ELISA. In kind it is cell-based.
Assay [2] has as its target T1, SOS1-KRAS (Homo sapiens, UniProt P01116+Q07889, G12C). The assay is described as follows: Inhibition of human N-terminal GST-tagged K-RasG12C mutant/human N-terminal His-tagged SOS1 preincubated for 2 mis followed by SOS1 addition and measured after 20 mins in presence of GDP-Dy647P1 by HTRF assay. A general note: TR-FRET usually uses a lanthanide donor and a delayed reading to cut background.

Assay [3] addresses T1, SOS1-KRAS. The assay is described as follows: Inhibition of human N-terminal GST-tagged K-RasG12C mutant/human N-terminal His-tagged SOS1 preincubated for 2 mis followed by SOS1 addition and measured after 60 mins by HTRF assay.
Assay [4] addresses T1, SOS1-KRAS. The assay is described as follows: Inhibition of human N-terminal GST-tagged K-RasG12C mutant/human N-terminal His-tagged SOS1 preincubated for 2 mis followed by SOS1 addition and measured after 10 mins in presence of EDA-GTP-Dy647P1 by HTRF assay.

The structures appear in SMILES notation. Bounds are passed on as bounds.

Usually IC50 stands for the concentration that inhibits the measured activity by half.

T1 sequence (P01116 whole entry G12C, stated change not applied): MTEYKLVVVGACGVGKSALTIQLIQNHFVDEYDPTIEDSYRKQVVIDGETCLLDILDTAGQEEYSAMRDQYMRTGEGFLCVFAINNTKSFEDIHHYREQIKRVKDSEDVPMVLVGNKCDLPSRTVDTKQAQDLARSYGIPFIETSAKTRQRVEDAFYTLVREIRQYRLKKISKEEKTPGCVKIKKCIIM
T1 sequence (Q07889 whole entry, stated change not applied): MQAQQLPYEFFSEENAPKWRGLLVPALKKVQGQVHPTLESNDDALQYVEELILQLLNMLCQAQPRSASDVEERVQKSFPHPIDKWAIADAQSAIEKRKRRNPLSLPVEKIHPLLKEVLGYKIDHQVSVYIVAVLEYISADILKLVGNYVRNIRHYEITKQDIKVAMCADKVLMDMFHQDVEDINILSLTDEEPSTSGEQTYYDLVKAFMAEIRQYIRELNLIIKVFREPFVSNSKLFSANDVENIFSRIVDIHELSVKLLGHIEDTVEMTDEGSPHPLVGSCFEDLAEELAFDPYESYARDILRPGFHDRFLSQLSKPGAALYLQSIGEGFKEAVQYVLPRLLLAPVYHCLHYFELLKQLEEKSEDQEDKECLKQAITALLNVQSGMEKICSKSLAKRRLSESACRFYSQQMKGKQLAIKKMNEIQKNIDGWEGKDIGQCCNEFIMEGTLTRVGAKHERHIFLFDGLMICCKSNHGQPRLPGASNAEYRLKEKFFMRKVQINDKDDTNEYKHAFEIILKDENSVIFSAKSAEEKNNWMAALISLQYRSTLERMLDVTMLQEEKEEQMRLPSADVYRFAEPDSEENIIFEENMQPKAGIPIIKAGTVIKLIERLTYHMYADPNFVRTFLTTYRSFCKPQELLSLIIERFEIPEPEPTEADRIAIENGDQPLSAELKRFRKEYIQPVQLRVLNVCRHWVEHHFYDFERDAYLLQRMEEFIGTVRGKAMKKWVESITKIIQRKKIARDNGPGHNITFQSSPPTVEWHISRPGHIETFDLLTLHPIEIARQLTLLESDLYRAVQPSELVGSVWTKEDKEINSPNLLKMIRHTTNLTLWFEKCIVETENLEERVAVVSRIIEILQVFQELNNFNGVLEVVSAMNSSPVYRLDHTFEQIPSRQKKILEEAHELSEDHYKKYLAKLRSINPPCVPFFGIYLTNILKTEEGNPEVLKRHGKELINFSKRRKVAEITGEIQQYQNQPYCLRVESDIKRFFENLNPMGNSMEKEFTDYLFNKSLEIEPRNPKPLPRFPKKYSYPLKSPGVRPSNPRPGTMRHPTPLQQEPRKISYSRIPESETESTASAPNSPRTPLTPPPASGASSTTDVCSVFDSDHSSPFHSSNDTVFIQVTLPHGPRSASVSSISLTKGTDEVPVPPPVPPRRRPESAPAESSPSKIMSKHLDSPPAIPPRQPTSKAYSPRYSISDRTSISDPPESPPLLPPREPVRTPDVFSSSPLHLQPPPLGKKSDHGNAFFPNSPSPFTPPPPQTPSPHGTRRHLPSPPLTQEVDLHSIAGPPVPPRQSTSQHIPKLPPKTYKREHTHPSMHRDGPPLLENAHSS
Chain of Epidermal growth factor receptor (P00533 whole entry): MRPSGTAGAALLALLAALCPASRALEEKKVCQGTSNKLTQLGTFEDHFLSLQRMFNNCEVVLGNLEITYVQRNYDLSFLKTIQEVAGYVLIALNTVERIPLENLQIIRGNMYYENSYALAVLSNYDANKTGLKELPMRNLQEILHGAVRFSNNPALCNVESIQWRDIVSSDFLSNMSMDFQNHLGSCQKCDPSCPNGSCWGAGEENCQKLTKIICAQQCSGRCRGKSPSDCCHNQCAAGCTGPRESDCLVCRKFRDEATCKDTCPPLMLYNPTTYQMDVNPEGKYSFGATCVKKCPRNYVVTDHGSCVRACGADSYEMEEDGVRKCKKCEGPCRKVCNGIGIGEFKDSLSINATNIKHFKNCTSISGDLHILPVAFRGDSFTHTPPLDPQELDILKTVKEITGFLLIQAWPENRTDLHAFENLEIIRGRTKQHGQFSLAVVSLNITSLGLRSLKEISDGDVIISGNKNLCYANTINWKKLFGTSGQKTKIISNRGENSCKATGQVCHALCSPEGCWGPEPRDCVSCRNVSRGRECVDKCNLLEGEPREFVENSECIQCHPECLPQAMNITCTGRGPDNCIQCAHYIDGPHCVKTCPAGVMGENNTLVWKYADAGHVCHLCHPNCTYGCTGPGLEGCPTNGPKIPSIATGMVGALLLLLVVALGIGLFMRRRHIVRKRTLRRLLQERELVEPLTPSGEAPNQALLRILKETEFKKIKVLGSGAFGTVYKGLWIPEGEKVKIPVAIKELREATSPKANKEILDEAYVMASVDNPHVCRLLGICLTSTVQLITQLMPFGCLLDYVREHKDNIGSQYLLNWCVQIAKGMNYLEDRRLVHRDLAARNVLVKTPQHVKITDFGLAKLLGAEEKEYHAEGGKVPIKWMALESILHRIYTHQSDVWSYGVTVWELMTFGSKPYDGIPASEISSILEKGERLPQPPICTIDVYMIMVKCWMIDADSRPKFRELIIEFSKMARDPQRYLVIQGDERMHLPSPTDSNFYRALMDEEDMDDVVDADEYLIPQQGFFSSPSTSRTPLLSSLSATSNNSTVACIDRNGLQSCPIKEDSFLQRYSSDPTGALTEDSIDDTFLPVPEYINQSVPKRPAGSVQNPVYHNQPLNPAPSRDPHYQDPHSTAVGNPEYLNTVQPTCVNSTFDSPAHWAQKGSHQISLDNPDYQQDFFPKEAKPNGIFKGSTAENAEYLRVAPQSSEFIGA

In assay [1], `CSc1cc2c(N[C@H](C)c3ccc(F)cc3)nc(C)nc2cn1` showed a half-maximal inhibitory concentration (IC50) of over 20 µM.
The same measure, in the same setting: then `CNCc1ccccc1-c1ccc(C(C)Nc2nc(C)nc3cnc(OCC4CCNC(=O)C4)cc23)s1` (centres undefined), with over 20 µM.
Take `Cc1nc(NC(C)c2ccc(-c3ccccc3CN(C)C)s2)c2cc(OCCN(C)C)ncc2n1` (centres undefined): the IC50 on SOS1-KRAS [2] is 0.027 µM; in assay [1] it was over 20 µM; at SOS1-KRAS [3], 0.03 µM.
The compound `COCCOc1cc2c(N[C@H](C)c3ccc(F)cc3)nc(C)nc2cn1` registered an IC50 in assay [1] of over 20 µM.
Turning to `CCOc1cc2c(N[C@H](C)c3ccc(F)cc3)nc(C)nc2cn1`, the IC50 in assay [1] was over 20 µM.
For `Cc1nc(NC(C)c2ccc(-c3ccccc3CN(C)C)s2)c2cc(N3CCN(Cc4cccnc4)CC3)ncc2n1` (centres undefined), the IC50 at SOS1-KRAS [2] was 0.085 µM; in assay [1], over 20 µM.
The corresponding values for `CCCOc1cc2c(NC(C)c3ccc(-c4ccccc4CN(C)C)s3)nc(C)nc2cn1` (centres undefined) are 0.038 µM and over 20 µM.
As to `COc1cc2c(N[C@H](C)c3ccc(F)cc3)nc(C)nc2cn1`, the IC50 in assay [1] is over 20 µM.
On the same count and under the same terms, then `Cc1nc(NC(C)c2ccc(-c3ccccc3CN(C)C)s2)c2cc(N3CC(NC(=O)CN4CCOCC4)C3)ncc2n1` (centres undefined), with over 20 µM; and `CCOc1cc2c(N[C@H](C)c3ccccc3)nc(C)nc2cn1`, with over 20 µM.
Regarding `Cc1nc(NC(C)c2ccc(-c3ccccc3CN(C)C)s2)c2cc(N3CCNC(=O)C3)ncc2n1` (centres undefined), the figures for the IC50 (on SOS1-KRAS [2]; in assay [1]; at SOS1-KRAS [4]) were 0.048 µM, over 20 µM and 0.054 µM, respectively.
`CC(=O)NC1CCN(c2cc3c(NC(C)c4ccc(-c5ccccc5CN(C)C)s4)nc(C)nc3cn2)C1` (racemic) gave an IC50 in assay [1] of over 20 µM.
On the same count and under the same terms, then `CC(=O)N[C@@H]1CCN(c2cc3c(NC(C)c4ccc(-c5ccccc5CN(C)C)s4)nc(C)nc3cn2)C1` (stereo in doubt; 60), with over 20 µM; and `CC(=O)N[C@H]1CCN(c2cc3c(NC(C)c4ccc(-c5ccccc5CN(C)C)s4)nc(C)nc3cn2)C1` (stereo in doubt; 61), with over 20 µM.
Consider `CC(=O)N[C@@H]1CCN(c2cc3c(NC(C)c4ccc(-c5ccccc5CN(C)C)s4)nc(C)nc3cn2)C1` (stereo in doubt; 79), for which the IC50 in assay [1] (hela) is over 20 µM.
`CC(=O)N[C@@H]1CCN(c2cc3c(NC(C)c4ccc(-c5ccccc5CN(C)C)s4)nc(C)nc3cn2)C1` (stereo in doubt; 80): the IC50 in assay [1] (hela) is over 20 µM.
The same measure, in the same setting: to `CC(=O)N[C@H]1CCN(c2cc3c(NC(C)c4ccc(-c5ccccc5CN(C)C)s4)nc(C)nc3cn2)C1` (stereo in doubt; 81) belongs over 20 µM.
Same read-out and setting: to `CC(=O)N[C@H]1CCN(c2cc3c(NC(C)c4ccc(-c5ccccc5CN(C)C)s4)nc(C)nc3cn2)C1` (stereo in doubt; 82) belongs over 20 µM.

Values taken from ChEMBL document CHEMBL4334534, “Novel Methyl-aza-quinazolines as Inhibitors of the RAS-SOS Interaction” (ACS Med Chem Lett, 2020).
